Assay results published in patent publication US10662214B2, “Compound of 4′-thionucleoside, as well as preparation method therefor, pharmaceutical composition thereof and application thereof” (Sichuan Kelun-Biotech Biopharmaceutical Co., Ltd., priority 2015, dated 2020).

Columns and labels:
[1] = system: human pancreatic cancer cell PANC-1; assay: Subcutaneous xenograft of human pancreatic cancer cell PANC-1 in a nude mouse (Experimental example 6); type: in vivo; details: once every 3 days, 6 times
Description: This test was performed according to experimental example 5.
Mice bearing a tumor having a volume of 100-200 mm^3 were selected, and randomized into 4 groups (6 mice per group).

[2] = Intravenous toxicity test in mice (administration for 7 days); type: in vivo
Source text: This test was used to investigate the toxic reactions after intravenous administration of compound C8 to normal KM mice for 7 consecutive days.
KM mice passing the quarantine control were randomized into 4 groups (3 mice/gender/group). The test compound and vehicle control were formulated according to Experimental example 2. The mortality, appearance, behavior, mental status, secretion and excreta etc. of the animals were observed every day for 7 consecutive days after the administration, and the animals were anatomized on day 8.

[3] = 115.38 μmol/kg i.v., 7 days, anatomy on day 8

Question: Which “TGI (%)” value ([1]; 0.06 mmol/kg p.o.) does the source give for `CC(C)OC(=O)[C@H](C)N[P@](=O)(OC[C@H]1S[C@@H](n2ccc(N)nc2=O)[C@@H](F)[C@@H]1O)Oc1ccccc1` [Compound C8, (S)-isopropyl 2-(((S)-(((2R,3S,4S,5R)-5-(4-amino-2-oxopyrimidin-1(2H)-yl)-4-fluoro-3-hydroxytetrahydrothiophen-2-yl)methoxy)(phenoxy)phosphoryl)amino)propanoate] here?
Answer: 155%

Question: What about the “TGI (%)” value ([1]; 0.19 mmol/kg p.o.) of the same molecule?
Answer: 195%

Question: What about the “body weight increase on day 8, female mice” value ([2]; 115.38 μmol/kg i.v., 7 days) of the same molecule?
Answer: 13.1%

Question: And the “body weight increase on day 8, male mice” value ([2]; 115.38 μmol/kg i.v., 7 days)?
Answer: 26.7%

Question: What about the “leukocyte count decrease vs vehicle group, female” value [2, 3] of the same molecule?
Answer: 45%

Question: What about the “leukocyte count decrease vs vehicle group, male” value [2, 3] of the same molecule?
Answer: 49%

Question: And the “platelet count decrease vs vehicle group, female” value [2, 3]?
Answer: 43%

Question: And the “platelet count decrease vs vehicle group, male” value [2, 3]?
Answer: 39%

Question: And the “symptoms observed on day 8” value ([2]; compound C8 60.9 mg/kg (115.38 μmol/kg) i.v., 7 consecutive days)?
Answer: no relevant abnormalities were observed
